The series can be described thus: Thermal gravimetric analysis (TGA) of thermal stability. It counts as physicochemical. The note with it: heated 25-500° C. at 10° C./min; degradation beyond. As for the experimental part: 2-2.5 mg of polymer and drug samples were carefully weighed and positioned in to a standard aluminium pan. The samples were heated from 25° C. to 500° C. at 10° C./min. The extracted raw data were analysed via TA Universal Analysis software (Universal Analysis 2000, version 4.5A, TA instruments, USA).

The structures appear in SMILES notation.

For the compound `CC(C)Cc1ccc(C(C)C(=O)O)cc1` (stereo not shown) [IBU, Ibuprofen], the “thermally stable when heated up to (TGA)” value was “up to 140 °C”.

The record behind these values is US20250255781A1, “PROCESSES FOR PREPARATION OF 3-D PRINTED PHARMACEUTICAL PRODUCTS” (BRISTOL-MYERS SQUIBB COMPANY, priority 2022, published 2025).
